Our source for the Ki and AC50 values is US20230021562A1, “[…] D[…]-1 INHIBITORS” (priority 2019, published 2023).

Experiment [1] deals with Myeloid Cell Leukemia 1 (Mcl-1) (Homo sapiens, UniProt Q07820). As to the kind of experiment: biochemical. The settings on record: HTRF Ki (nM). The experiment is classed as binding. In general terms: TR-FRET usually uses a lanthanide donor and a delayed reading to cut background.
A further experiment has as its system MOLP8 cell line. As to the kind of experiment: MOLP8 CellEvent Caspase-3/7 Green live-cell IncuCyte apoptosis assay. To be noted: averaged values. It is filed as cell-based, human. The procedure: (§1) MCL-1 is a regulator of apoptosis and is highly over-expressed in tumor cells that escape cell death. The assay evaluates the cellular potency of small-molecule compounds targeting regulators of the apoptosis pathway, primarily MCL-1, Bfl-1, Bcl-2, and other proteins of the Bcl-2 family. Protein-protein inhibitors disrupting the interaction of anti-apoptotic regulators with BH3-domain proteins initiate apoptosis.
Activation of the apoptotic pathway was measured using the CellEvent™ Caspase-3/7 Green ReadyProbes™ Reagent (Thermo Fisher C10423, C10723). This assay produces a green fluorescent stain in cells that enter the apoptosis pathway. CellEvent® Caspase-3/7 Green reagent is a four amino acid peptide (DEVD) conjugated to a nucleic acid-binding dye that is non-fluorescent when not bound to DNA. The CellEvent® Caspase-3/7 Green reagent is intrinsically non-fluorescent, as the DEVD peptide inhibits binding of the dye to DNA. Upon activation of caspase-3/7 in apoptotic cells, the DEVD peptide is cleaved and the free dye can bind DNA, generating a bright green fluorescence. The activation of Caspase-3 and Caspase-7 is downstream of inhibition of MCL-1 or other apoptosis inhibiting proteins in cell lines that are dependent on them.
The live-cell readout on the IncuCyte permits tracking over time of the Caspase activation. […] The IncuCyte readout also allows one to normalize for cell number, as the suspension cells are hard to distribute evenly.
Signals were measured every 2 h for a duration of 22 h. The ratio of the Caspase mask to the Confluence mask, per image, as raw data, was calculated and the kinetic trace for every well was exported to Genedata Screener for analysis.
In Genedata Screener values for 6 h, 12 h, and 22 h from the kinetic traces were extracted. The values were normalized against negative controls (untreated cells). A standard dose-response analysis was performed on the normalized data.
The following data was reported at each of the following three aforementioned time points: (a) The dose-response curve, (b) The qAC50 and qAC50 Mode, and (c) Max Activity.
Cells were maintained in culture medium containing 10% Heat Inactivated (HI) FBS, 2 mM L-Glutamine and 50 μg/mL Gentamycin phenol red free RPMI-1640. Cells were split at 0.4 million/mL twice a week.
On Day 1, plates containing individual wells with test compounds at 10 mM concentration, 150 nL per well. The final concentrations range from […] compound (and no compound control) and compounds were thawed at room temperature for 1 hour. 25 μl of prewarmed medium was added into each well by multidrop (column 1, 3-22, 24), followed by addition of DMSO control (0.6% DMSO) in column 2. The plate was sealed using Breathe-Easy® sealing membrane and shaken for 30 min at room temperature to dissolve the test compound(s) in medium. The plate was then kept in the incubator for 1 hour at 37° C., 5% CO2.
MOLP8 cells in medium at […] (20000/50 μl final in assay) were prepared with CellEvent™ Caspase-3/7 Green Detection Reagent at 4 μM (2 μM final in assay). Once prepared, the cells were added to the test compound plate in an amount of 20000 and the plate was immediately placed in the IncuCyte and imaging started using following settings: 10× objective, 2 s exposure time in green channel, interval of 2 h, acquisition stopped after 22 h.
For analysis in IncuCyte, a Basic Analysis protocol was defined to calculate the “confluence” and “caspase” areas from the “Phase” and “green” images, respectively, as follows: (a) Confluence: Segmentation Adjustment 1, Hole Fill 0, Adjust Size −2, No filters (b) Caspase: Top-Hat segmentation, Radius 10, Threshold 0.3 GCU, Edge Split On with sensitivity 0, Hole Fill 0, Adjust Size 1, and filter on a minimum Area of 20 μm^2. The analyzer is trained on a sufficient number of positive and negative control wells, as well as compound treated wells, verifying that the “confluence” layer detects both live and dead (condensed) cells. […]

For experiment [2], the system named is MOLP-8 human multiple myeloma cell line. As to the kind of experiment: MOLP8 Caspase-Glo 3/7 luminescent assay. It is filed as cell-based. To be noted: averaged over all runs on all batches.
Source text: as §1
The Caspase-Glo® 3/7 Assay is a luminescent assay that measures caspase-3 and -7 activities in purified enzyme preparations or cultures of adherent or suspension cells. The assay provides a proluminescent caspase-3/7 substrate, which contains the tetrapeptide sequence DEVD. This substrate is cleaved to release aminoluciferin, a substrate of luciferase used in the production of light. Addition of the single Caspase-Glo® 3/7 Reagent in an “add-mix-measure” format results in cell lysis, followed by caspase cleavage of the substrate and generation of a “glow-type” luminescent signal.
This assay uses the MOLP-8 human multiple myeloma cell line, which is sensitive to MCL-1 inhibition.
Cell cultures were maintained between 0.2 and 2.0×10^6 cells/mL. The cells were harvested by collection in 50 mL conical tubes. The cells were then pelleted at 500 g for 5 mins before removing supernatant and resuspension in fresh pre-warmed culture medium. The cells were counted and diluted as needed.
The assay reagent was prepared by transferring the buffer solution to the substrate vial and mixing. The solution may be stored for up to 1 week at 4° C. with negligible loss of signal.
Compounds were delivered in assay-ready plates (Proxiplate) and stored at −20° C.
Assays always include 1 reference compound plate containing reference compounds. The plates were spotted with 40 nL of compounds (0.5% DMSO final in cells; serial dilution; 30 μM highest conc. 1/3 dilution, 10 doses, duplicates). The compounds were used at room temperature and 4 μL of pre-warmed media was added to all wells except column 2 and 23. The negative control was prepared by adding 1% DMSO in media. The positive control was prepared by adding the appropriate positive control compound in final concentration of 60 μM in media. The plate was prepared by adding 4 μL negative control to column 23, 4 μL positive control to column 2 and 4 μL cell suspension to all wells in the plate. The plate with cells was then incubated at 37° C. for 2 hours. The assay signal reagent is the Caspase-Glo solution described above, and 8 μL was added to all wells. The plates were then sealed and measured after 30 minutes.
The activity of a test compound was calculated as percent change in apoptosis induction as follows: […]

Setting [3] is: read-out: MOLP8 Caspase 3/7 AC50 at 6 h, MOLP8 cells, 6 h.
Where [4] appears, read: read-out: MOLP8 Caspase 3/7 AC50 at 12 h, MOLP8 cells, 12 h.
The mark [5] stands for this setting: read-out: MOLP8 Caspase 3/7 AC50 at 22 h, MOLP8 cells, 22 h.
The mark [6] stands for this setting: MOLP8 cells, 2 hours incubation, read-out: MOLP8 Caspase-Glo AC50.
Where [7] appears, read: read-out: MOLP8 Caspase-Glo AC50, MOLP8 cells, 2 hours incubation.
[8] abbreviates: Homo sapiens, MOLP-8, 2 h, read-out: MOLP8 Caspase-Glo AC50 (nM), MOLP8 cells, 2 hours incubation.

Several values for one entry are separate records, joined by “and”; a condition that tells them apart may be missing. Identical values can stand only once. Like-named read-outs stand apart in the source and are kept apart here.

Chain of Myeloid Cell Leukemia 1 (Mcl-1) (Q07820 whole entry): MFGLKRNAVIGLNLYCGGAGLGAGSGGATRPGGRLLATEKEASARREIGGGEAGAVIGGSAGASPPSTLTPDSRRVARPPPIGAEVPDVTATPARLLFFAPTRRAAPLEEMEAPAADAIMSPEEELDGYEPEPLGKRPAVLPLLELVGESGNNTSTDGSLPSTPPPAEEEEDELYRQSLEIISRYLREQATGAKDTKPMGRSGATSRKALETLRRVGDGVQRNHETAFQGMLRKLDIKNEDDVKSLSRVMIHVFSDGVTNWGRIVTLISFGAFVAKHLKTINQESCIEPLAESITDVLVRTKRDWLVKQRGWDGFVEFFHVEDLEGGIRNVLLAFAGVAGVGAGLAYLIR

In the case of `Cc1c2c(nn1CCCN1CCOCC1)CN(C)Cc1cc(n(C)n1)CSc1cc(c3ccccc3c1)OCCCc1c(C(=O)O)n(C)c3c-2c(Cl)ccc13` (single isomer, unassigned) [Compound 36], in experiment [1], the Ki (commonly the dissociation constant of the complex between target and ligand, obtained from inhibition or displacement) was 1.34 nM and 2.06 nM. Also, the AC50 in the experiment with MOLP8 cell line (setting [3]) was 6.14 µM; in the experiment with MOLP8 cell line (setting [4]), 5.77 µM; in the experiment on MOLP8 cell line (setting [5]), 4.29 µM; in experiment [2] (Homo sapiens, MOLP-8, 2 h, MOLP8 cells, 2 hours incubation, read-out: MOLP8 Caspase-Glo AC50), 2820 nM.

On to `Cc1c2c(nn1CC1CCOCC1)CN(C)Cc1cc(n(C)n1)CSc1cc(c3ccccc3c1)OCCCc1c(C(=O)O)n(C)c3c-2c(Cl)ccc13` (single isomer, unassigned) [Compound 16], for which the Ki in experiment [1] is 0.06 nM and 0.05 nM. Further, the AC50 in the experiment with MOLP8 cell line (setting [3]) turned out to be 0.15 µM; with MOLP8 cell line (setting [4]), 0.14 µM; with MOLP8 cell line (setting [5]) it was 0.15 µM; in experiment [2] (setting [6]), 49 nM.

With `COCCn1nc2c(c1C)-c1c(Cl)ccc3c(c(C(=O)O)n(C)c13)CCCOc1cc(cc3ccccc13)SCc1cc(nn1C)CN(C)C2` (single isomer, unassigned) [Compound 28], the Ki in experiment [1] was 9.8 nM and 9.39 nM. The AC50 with MOLP8 cell line (setting [3]) is about 20.7 µM; with MOLP8 cell line (setting [4]), 13.4 µM; with MOLP8 cell line (setting [5]) it was 11.3 µM; in experiment [2] (setting [7]), 5400 nM.

`Cc1[nH]nc2c1-c1c(Cl)ccc3c(c(C(=O)O)n(C)c13)CCCOc1cc(cc3ccccc13)SCc1cc(nn1C)CN(C)C2` (single isomer, unassigned) [Compound 24]: in experiment [1], the Ki is 1.2 nM and 1.87 nM. The AC50 with MOLP8 cell line (setting [3]) was about 10.5 µM; in the experiment on MOLP8 cell line (setting [4]), 12 µM; in the experiment with MOLP8 cell line (setting [5]), 11.5 µM; in experiment [2] (setting [7]), 8160 nM.

In experiment [1], `Cc1c2c(nn1C)CSCc1cc(nn1CCO)CSc1cc(c3ccccc3c1)OCCCc1c(C(=O)O)n(C)c3c-2c(Cl)ccc13` [Compound 6] showed a Ki of 0.16 nM. Besides, the AC50 is 0.71 µM in the experiment with MOLP8 cell line (Homo sapiens, MOLP-8, 6 h, read-out: MOLP8 Caspase 3/7 AC50 at 6 h (μM), MOLP8 cells, 6 h); 0.63 µM in the experiment on MOLP8 cell line (Homo sapiens, MOLP-8, 12 h, read-out: MOLP8 Caspase 3/7 AC50 at 12 h (μM), MOLP8 cells, 12 h); 0.48 µM in the experiment with MOLP8 cell line (Homo sapiens, MOLP-8, 22 h, read-out: MOLP8 Caspase 3/7 AC50 at 22 h (μM), MOLP8 cells, 22 h); 414 nM in experiment [2] (setting [8]).

In the case of `Cc1nn(CCO)c2c1-c1c(Cl)ccc3c(c(C(=O)O)n(C)c13)CCCOc1cc(cc3ccccc13)SCc1cc(nn1C)CN(C)C2` (single isomer, unassigned) [Compound 40], the Ki in experiment [1] was 2.48 nM and 2.61 nM. Further, the AC50 is about 26.3 µM in the experiment on MOLP8 cell line (setting [3]), over 30.2 µM with MOLP8 cell line (setting [4]), about 15.6 µM in the experiment on MOLP8 cell line (setting [5]) and 10700 nM in experiment [2] (setting [8]).

For `Cc1nn(CCCN2CCOCC2)c2c1-c1c(Cl)ccc3c(c(C(=O)O)n(C)c13)CCCOc1cc(cc3ccccc13)SCc1cc(nn1C)CN(C)C2` (single isomer, unassigned) [Compound 34], in experiment [1], the Ki was 0.47 nM and 0.68 nM. For the same molecule, the AC50 is 2.25 µM in the experiment on MOLP8 cell line (setting [3]), 2.54 µM in the experiment on MOLP8 cell line (setting [4]), 2.32 µM in the experiment on MOLP8 cell line (setting [5]) and 1000 nM in experiment [2] (setting [6]).

Take `Cc1c2c(nn1CCN(C)C)CN(C)Cc1cc(n(C)n1)CSc1cc(c3ccccc3c1)OCCCc1c(C(=O)O)n(C)c3c-2c(Cl)ccc13` (single isomer, unassigned) [Compound 20]: the Ki in experiment [1] was 0.06 nM and 0.03 nM. The AC50 with MOLP8 cell line (setting [3]) came to 0.29 µM; in the experiment with MOLP8 cell line (setting [4]) it was 0.32 µM; in the experiment on MOLP8 cell line (setting [5]), 0.33 µM; in experiment [2] (setting [6]) it was 83 nM.

Consider `Cc1c2c(nn1CC1CCOCC1)CN(C)Cc1cc(n(C)n1)CSc1cc(c3ccccc3c1)OCCCc1c(C(=O)O)n(C)c3c-2c(Cl)ccc13` (single isomer, unassigned) [Compound 17], for which the Ki in experiment [1] is 0.41 nM and 0.66 nM. Also, the AC50 with MOLP8 cell line (setting [3]) came to 1.23 µM; in the experiment with MOLP8 cell line (setting [4]) it was 1.24 µM; in the experiment with MOLP8 cell line (setting [5]), 1.22 µM; in experiment [2] (setting [6]), 564 nM.

Take `COCCOCCn1nc2c(c1C)-c1c(Cl)ccc3c(c(C(=O)O)n(C)c13)CCCOc1cc(cc3ccccc13)SCc1cc(nn1C)CN(C)C2` (single isomer, unassigned) [Compound 32]: the Ki in experiment [1] is 7.44 nM and 8.51 nM. In addition, the AC50 was about 27.5 µM with MOLP8 cell line (setting [3]), about 21.5 µM in the experiment on MOLP8 cell line (setting [4]), about 20 µM in the experiment with MOLP8 cell line (setting [5]) and 12100 nM in experiment [2] (setting [6]).
